pIC50: −log10 of the molar value.

Chain of SUV420H1 enzyme (Q4FZB7 whole entry): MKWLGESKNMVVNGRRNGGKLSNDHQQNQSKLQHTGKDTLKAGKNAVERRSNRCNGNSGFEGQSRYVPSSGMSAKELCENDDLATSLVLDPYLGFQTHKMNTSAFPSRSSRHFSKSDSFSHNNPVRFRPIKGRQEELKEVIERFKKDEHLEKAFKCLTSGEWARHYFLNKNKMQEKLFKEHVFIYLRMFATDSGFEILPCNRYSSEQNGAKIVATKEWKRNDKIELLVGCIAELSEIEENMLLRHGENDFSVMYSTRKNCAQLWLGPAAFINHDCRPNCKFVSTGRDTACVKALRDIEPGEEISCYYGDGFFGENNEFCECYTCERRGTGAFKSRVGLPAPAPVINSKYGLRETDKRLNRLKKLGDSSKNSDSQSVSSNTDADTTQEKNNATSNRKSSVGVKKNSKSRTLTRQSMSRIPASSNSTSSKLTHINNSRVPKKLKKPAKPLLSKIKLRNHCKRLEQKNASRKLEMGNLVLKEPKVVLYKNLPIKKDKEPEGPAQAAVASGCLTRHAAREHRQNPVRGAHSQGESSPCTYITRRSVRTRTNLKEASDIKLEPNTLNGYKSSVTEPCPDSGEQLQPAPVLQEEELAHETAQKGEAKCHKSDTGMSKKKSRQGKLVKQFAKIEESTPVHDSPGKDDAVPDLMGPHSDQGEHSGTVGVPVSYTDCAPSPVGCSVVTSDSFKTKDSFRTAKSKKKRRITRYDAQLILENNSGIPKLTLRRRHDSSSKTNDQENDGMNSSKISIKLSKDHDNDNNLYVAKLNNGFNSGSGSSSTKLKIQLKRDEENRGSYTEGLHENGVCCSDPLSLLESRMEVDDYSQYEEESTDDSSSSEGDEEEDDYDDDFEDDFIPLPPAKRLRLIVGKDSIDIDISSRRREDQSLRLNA

This experiment addresses SUV420H1 enzyme (Homo sapiens, UniProt Q4FZB7). In words: TR-FRET SAH SUV420H1 enzyme inhibition assay. Format: biochemical. The conditions noted are these: Histone Peptide H4(8-30)me1 and SAM, overnight at room temp, TR-FRET detection of SAH, read-out: TR-FRET SAH_SUV420H1 IC50. The method in brief:
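SUV420H1 (90 nM) preincubated 30 min with compound (3-fold dilutions, 50 to 0.00075 μM), then H4(8-30)me1 peptide 5 nM and SAM 4 nM added, overnight at room temp. SAH product detected by TR-FRET with Tb anti-SAH antibody and Oregon Green-SAH in RIPA buffer, 4 h; IC50 from Hill fit, asymptotes fixed 0-100%.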
Background: TR-FRET usually uses a lanthanide donor and a delayed reading to cut background.
Take `COC(=O)c1ccc(-c2cc(Cn3cnc4c(N)ncnc43)c3[nH]c(CN)cc3c2)cc1` [Example 44, methyl 4-{2-(aminomethyl)-7-[(6-amino-9H-purin-9-yl)methyl]-1H-indol-5-yl}benzoate]: the pIC50 (usually the IC50 on a negative log10 scale, so that one unit is a factor of ten) was 6.25. With `Cc1noc(C)c1C(=O)NCc1cc2cc(-c3ccccc3)cc(Cn3cnc4c(N)ncnc43)c2[nH]1` [Example 164, N-({7-[(6-amino-9H-purin-9-yl)methyl]-5-phenyl-1H-indol-2-yl}methyl)-3,5-dimethyl-1,2-oxazole-4-carboxamide] the figure was 6.86; with `Cc1ccc(-c2ccc(Cn3cnc4c(N)ncnc43)c3[nH]c(CN)cc23)cc1` [Example 75, 9-{[2-(aminomethyl)-4-(4-methylphenyl)-1H-indol-7-yl]methyl}-9H-purin-6-amine], 6.05; with `N#Cc1ccc(F)c(CNCc2cc3cc(Cl)cc(Cn4cnc5c(N)ncnc54)c3[nH]2)c1` [Example 270, 3-{[({7-[(6-amino-9H-purin-9-yl)methyl]-5-chloro-1H-indol-2-yl}methyl)amino]methyl}-4-fluorobenzonitrile], 5.43. On to `CCC(=O)c1cc2cc(Cl)cc(Cn3cnc4c(N)ncnc43)c2[nH]1` [Example 90, 1-{7-[(6-amino-9H-purin-9-yl)methyl]-5-chloro-1H-indol-2-yl}propan-1-one], for which the pIC50 is 5.65.

Take `Nc1ncnc2c1ncn2Cc1cc(Cl)cc2cc(CNC(=O)C34CC5CC(CC(C5)C3)C4)[nH]c12` [Example 136, N-({7-[(6-amino-9H-purin-9-yl)methyl]-5-chloro-1H-indol-2-yl}methyl)tricyclo[3.3.1.1^3,7]decane-1-carboxamide]: the negative-log IC50 (pIC50) was 4.98. The value for `NCc1cc2cc(-c3ccc(CO)cc3)cc(Cn3cnc4c(N)ncnc43)c2[nH]1` [Example 33, (4-{2-(aminomethyl)-7-[(6-amino-9H-purin-9-yl)methyl]-1H-indol-5-yl}phenyl)methanol] was 6.28; that for `Nc1ncnc2c1ncn2Cc1cc(Cl)cc2cc(CNC(=O)c3cccnc3)[nH]c12` [Example 196, N-({7-[(6-amino-9H-purin-9-yl)methyl]-5-chloro-1H-indol-2-yl}methyl)pyridine-3-carboxamide] was 6.04.

For `COCC(=O)NCc1cc2cc(Cl)cc(Cn3cnc4c(N)ncnc43)c2[nH]1` [Example 95, N-({7-[(6-amino-9H-purin-9-yl)methyl]-5-chloro-1H-indol-2-yl}methyl)-2-methoxyacetamide], the pIC50 was below 4.30.

Turning to `NCc1cc2cc(-c3ccc(S(N)(=O)=O)cc3)cc(Cn3cnc4c(N)ncnc43)c2[nH]1` [Example 29, 4-{2-(aminomethyl)-7-[(6-amino-9H-purin-9-yl)methyl]-1H-indol-5-yl}benzenesulfonamide], the pIC50 was 6.60. As for `NCc1cc2ccc(Cl)c(Cn3cnc4c(N)ncnc43)c2[nH]1` [Example 58, 9-{[2-(aminomethyl)-6-chloro-1H-indol-7-yl]methyl}-9H-purin-6-amine], the pIC50 is 5.10.

In the case of `Cc1nnccc1C(=O)NCc1cc2cc(C3=CCC(F)(F)CC3)cc(Cn3cnc4c(N)ncnc43)c2[nH]1` [Example 201, N-({7-[(6-amino-9H-purin-9-yl)methyl]-5-(4,4-difluorocyclohex-1-en-1-yl)-1H-indol-2-yl}methyl)-3-methylpyridazine-4-carboxamide], the pIC50 is 7.23.

Consider `CCCC(=O)NCc1cc2cc(Cl)cc(Cn3cnc4c(N)ncnc43)c2[nH]1` [Example 98, N-({7-[(6-amino-9H-purin-9-yl)methyl]-5-chloro-1H-indol-2-yl}methyl)butanamide], for which the negative logarithm of the IC50 (pIC50) is 4.93. For the compound `CCN(CC)Cc1cc2cc(Cl)cc(Cn3cnc4c(N)ncnc43)c2[nH]1` [Example 97, 9-({5-chloro-2-[(diethylamino)methyl]-1H-indol-7-yl}methyl)-9H-purin-6-amine], the pIC50 is 4.94.

Regarding `Cc1oncc1C(=O)NCc1cc2cc(Cl)cc(Cn3cnc4c(N)ncnc43)c2[nH]1` [Example 149, N-({7-[(6-amino-9H-purin-9-yl)methyl]-5-chloro-1H-indol-2-yl}methyl)-5-methyl-1,2-oxazole-4-carboxamide], the pIC50 was 5.69. For `Cc1noc(C)c1C(=O)NCc1cc2cc(-c3cccc(C(=O)NC4CC4)c3)cc(Cn3cnc4c(N)ncnc43)c2[nH]1` [Example 178, N-({7-[(6-amino-9H-purin-9-yl)methyl]-5-[3-(cyclopropylcarbamoyl)phenyl]-1H-indol-2-yl}methyl)-3,5-dimethyl-1,2-oxazole-4-carboxamide], the pIC50 was 6.94. Consider `N#Cc1ccc(C(=O)NCc2cc3cc(C4=CCC(F)(F)CC4)cc(Cn4cnc5c(N)ncnc54)c3[nH]2)c(Cl)c1` [Example 278, N-({7-[(6-amino-9H-purin-9-yl)methyl]-5-(4,4-difluorocyclohex-1-en-1-yl)-1H-indol-2-yl}methyl)-2-chloro-4-cyanobenzamide], for which the pIC50 is 7.17. On to `CC1CCCCC1C(=O)NCc1cc2cc(Cl)cc(Cn3cnc4c(N)ncnc43)c2[nH]1` (stereo not drawn) [Example 132, N-({7-[(6-amino-9H-purin-9-yl)methyl]-5-chloro-1H-indol-2-yl}methyl)-2-methylcyclohexanecarboxamide], for which the pIC50 was 5.20. As for `Cc1cc(C#N)ccc1C(=O)NCc1cc2cc(C3=CCC(F)(F)CC3)cc(Cn3cnc4c(N)ncnc43)c2[nH]1` [Example 306, N-({7-[(6-amino-9H-purin-9-yl)methyl]-5-(4,4-difluorocyclohex-1-en-1-yl)-1H-indol-2-yl}methyl)-4-cyano-2-methylbenzamide], the pIC50 was 7.25. Consider `Nc1ncnc2c1ncn2Cc1cc(Cl)cc2cc(CNC(=O)c3cnc4ccsc4c3)[nH]c12` [Example 337, N-({7-[(6-amino-9H-purin-9-yl)methyl]-5-chloro-1H-indol-2-yl}methyl)thieno[3,2-b]pyridine-6-carboxamide], for which the pIC50 was 7.01.

Regarding `Nc1ncnc2c1ncn2Cc1cc(Cl)cc2cc(CNCc3cc(F)ccc3Cl)[nH]c12` [Example 217, 9-[(5-chloro-2-{[(2-chloro-5-fluorobenzyl)amino]methyl}-1H-indol-7-yl)methyl]-9H-purin-6-amine], the pIC50 was 5.61. The value for `Cc1cc(C#N)ccc1C(=O)NCc1cc2cc(C3=CCN(C(=O)OC(C)(C)C)CC3)cc(Cn3cnc4c(N)ncnc43)c2[nH]1` [Example 308] was 7.30; that for `CC(=O)N1CC=C(c2cc(Cn3cnc4c(N)ncnc43)c3[nH]c(CNC(=O)c4ccc(C#N)cc4F)cc3c2)CC1` [Example 288, N-({5-(1-acetyl-1,2,3,6-tetrahydropyridin-4-yl)-7-[(6-amino-9H-purin-9-yl)methyl]-1H-indol-2-yl}methyl)-4-cyano-2-fluorobenzamide] was 7.37; that for `Nc1ncnc2c1ncn2Cc1cc(Cl)cc2cc(CNC(=O)c3c(F)cccc3F)[nH]c12` [Example 228, N-({7-[(6-amino-9H-purin-9-yl)methyl]-5-chloro-1H-indol-2-yl}methyl)-2,6-difluorobenzamide] was 5.62. In the case of `Cc1ccc(-c2cc(Cn3cnc4c(N)ncnc43)c3[nH]c(CNC(=O)c4c(C)noc4C)cc3c2)cc1` [Example 167, N-({7-[(6-amino-9H-purin-9-yl)methyl]-5-(4-methylphenyl)-1H-indol-2-yl}methyl)-3,5-dimethyl-1,2-oxazole-4-carboxamide], the pIC50 was 6.65. Turning to `Cc1noc(C)c1C(=O)NCc1cc2cc(Cl)cc(Cn3cnc4c(N)ncnc43)c2[nH]1` [Example 162, N-({7-[(6-amino-9H-purin-9-yl)methyl]-5-chloro-1H-indol-2-yl}methyl)-3,5-dimethyl-1,2-oxazole-4-carboxamide], the pIC50 was 6.63. As for `Nc1ncnc2c1ncn2Cc1cc(Cl)cc2cc(CNC(=O)c3ccccc3C(=O)N3CCCCC3)[nH]c12` [Example 324, N-({7-[(6-amino-9H-purin-9-yl)methyl]-5-chloro-1H-indol-2-yl}methyl)-2-(piperidin-1-ylcarbonyl)benzamide], the pIC50 is 4.90.

Turning to `Cc1ccc(CC(=O)NCc2cc3cc(Cl)cc(Cn4cnc5c(N)ncnc54)c3[nH]2)cc1` [Example 292, N-({7-[(6-amino-9H-purin-9-yl)methyl]-5-chloro-1H-indol-2-yl}methyl)-2-(4-methylphenyl)acetamide], the pIC50 was 4.49. The value for `Cc1nc2cc(C(=O)NCc3cc4cc(Cl)cc(Cn5cnc6c(N)ncnc65)c4[nH]3)ccc2n1CCO` [Example 376, N-({7-[(6-amino-9H-purin-9-yl)methyl]-5-chloro-1H-indol-2-yl}methyl)-1-(2-hydroxyethyl)-2-methyl-1H-benzimidazole-5-carboxamide] was 5.53; that for `Nc1ncnc2c1ncn2Cc1cc(Cl)cc2cc(CNC(=O)c3ccccc3F)[nH]c12` [Example 225, N-({7-[(6-amino-9H-purin-9-yl)methyl]-5-chloro-1H-indol-2-yl}methyl)-2-fluorobenzamide] was below 4.30. As for `Nc1ncnc2c1ncn2Cc1cc(Cl)cc2cc(CNC(=O)Cc3ccncc3)[nH]c12` [Example 232, N-({7-[(6-amino-9H-purin-9-yl)methyl]-5-chloro-1H-indol-2-yl}methyl)-2-(pyridin-4-yl)acetamide], the pIC50 is 5.70. Turning to `CC(=O)N1CC=C(c2cc(Cn3cnc4c(N)ncnc43)c3[nH]c(CNC(=O)c4cc(C)nnc4C)cc3c2)CC1` [Example 237, N-({5-(1-acetyl-1,2,3,6-tetrahydropyridin-4-yl)-7-[(6-amino-9H-purin-9-yl)methyl]-1H-indol-2-yl}methyl)-3,6-dimethylpyridazine-4-carboxamide], the pIC50 was 7.54. On to `Nc1ncnc2c1ncn2Cc1cc(Cl)cc2cc(CNC(=O)CCN3CCCCC3)[nH]c12` [Example 135, N-({7-[(6-amino-9H-purin-9-yl)methyl]-5-chloro-1H-indol-2-yl}methyl)-3-(piperidin-1-yl)propanamide], for which the pIC50 was 5.34.

For the origin of these results see patent publication US9932340B2, “Substituted indoles” (AbbVie Inc., priority 2014, dated 2018).
